Laboratory results taken from US12637468B2, “Substituted [1,2,4]triazolo[4,3-b]pyridazines as GABAA receptor modulators” (SHANGHAI SIMR BIOTECHNOLOGY CO., LTD., priority 2019, dated 2026).
In brackets after ≈: the same amount, converted by molar mass.

Assays:
α5-GABAA receptor = biological target: T1, α5-GABAA receptor (Homo sapiens, UniProt P18507+P31644); experiment: Cell-level screening: whole cell patch clamp, inverse agonist efficacy on α5-GABAA receptor expressed in HEK293; format: cell-based; details: drug 100 nM, GABA 0.05 μM, HEK293 expressing α5, β3 and γ2 subunits, clamped at −60 mV; read-out: Compound inverse agonist efficacy %
T1 construct: expressed in transfected cells; host or cells: HEK293, monoclonal stably transfected line
T1 sequence (P31644 32-462): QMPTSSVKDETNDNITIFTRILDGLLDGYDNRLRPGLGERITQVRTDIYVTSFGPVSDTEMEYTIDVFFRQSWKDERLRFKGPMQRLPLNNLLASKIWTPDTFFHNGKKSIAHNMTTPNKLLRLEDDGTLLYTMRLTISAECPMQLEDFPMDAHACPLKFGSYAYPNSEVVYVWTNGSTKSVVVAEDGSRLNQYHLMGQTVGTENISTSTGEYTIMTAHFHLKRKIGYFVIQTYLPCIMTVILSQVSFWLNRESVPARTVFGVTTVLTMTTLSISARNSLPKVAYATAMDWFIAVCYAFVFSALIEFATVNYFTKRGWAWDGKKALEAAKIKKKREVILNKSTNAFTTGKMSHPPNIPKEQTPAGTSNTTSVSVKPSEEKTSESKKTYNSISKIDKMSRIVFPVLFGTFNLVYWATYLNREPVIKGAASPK
T1 sequence (P28472 26-473 partner): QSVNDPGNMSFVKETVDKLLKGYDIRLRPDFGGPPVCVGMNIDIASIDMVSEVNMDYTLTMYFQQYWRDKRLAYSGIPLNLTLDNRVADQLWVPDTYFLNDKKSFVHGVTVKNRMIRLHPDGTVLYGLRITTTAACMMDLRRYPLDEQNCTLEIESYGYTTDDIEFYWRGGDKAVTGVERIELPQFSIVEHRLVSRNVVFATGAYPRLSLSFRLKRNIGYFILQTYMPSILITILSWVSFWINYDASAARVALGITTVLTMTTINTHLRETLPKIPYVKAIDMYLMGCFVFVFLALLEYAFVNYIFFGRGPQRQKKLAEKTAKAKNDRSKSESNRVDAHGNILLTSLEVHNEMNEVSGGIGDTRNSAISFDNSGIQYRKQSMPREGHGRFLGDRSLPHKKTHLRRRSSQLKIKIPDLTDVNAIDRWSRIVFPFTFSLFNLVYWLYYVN
T1 sequence (P18507 40-467 isoform P18507-1 limits assumed): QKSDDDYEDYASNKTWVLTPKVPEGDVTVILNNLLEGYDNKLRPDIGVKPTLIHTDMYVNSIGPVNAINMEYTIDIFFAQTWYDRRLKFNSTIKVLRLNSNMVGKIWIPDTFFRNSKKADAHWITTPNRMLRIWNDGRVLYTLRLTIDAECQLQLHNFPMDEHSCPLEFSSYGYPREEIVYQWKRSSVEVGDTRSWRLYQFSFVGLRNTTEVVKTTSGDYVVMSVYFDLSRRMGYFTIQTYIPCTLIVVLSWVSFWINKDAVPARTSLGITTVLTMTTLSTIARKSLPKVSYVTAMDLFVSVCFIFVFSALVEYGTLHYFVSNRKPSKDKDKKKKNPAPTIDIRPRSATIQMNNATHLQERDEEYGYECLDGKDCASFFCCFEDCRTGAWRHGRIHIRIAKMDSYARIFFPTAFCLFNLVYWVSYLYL
Outline: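 Whole-cell patch clamp at −60 mV on HEK293 stably expressing α5β3γ2, pH 7.4 extracellular/CsCl internal solutions. Current evoked by 0.05 μM GABA, then compound in GABA solution; screening at 100 nM, dose-response 0.3–300 nM. Inverse agonist efficacy as % change of GABA current.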

[1] = Thermodynamic solubility in simulated intestinal fluid (TS in FaSSIF); format: physicochemical; details: thermodynamic from solid, 37° C.
Protocol: Simulated intestinal fluid FaSSIF: 54.76 mg of FaSSIF-V2 (Biorelevant, batch. V2FAS-0619-A, lot. V2FAS01) was weighed and added to 15 mL of a buffer solution. After dissolving, the solution was supplemented to 30 mL, and put at room temperature for 1 hour before use.
Waters e2695 HPLC high performance liquid chromatography, Mettler XSE105 analytical balance.
Firstly, a 10 mM stock solution was prepared with DMSO, and was diluted with a diluent (ACN: PB buffer 50:50) into 1 μM-200 μM as a standard solution.
Thermodynamic solubility in intestinal fluid (TS in FaSSIF) was simulated. About 0.3 mg of each sample was weighed and added to 1.5 mL of FaSSIF solution, with two parts in parallel, shaken at 1000 rpm at 37° C. for 4 hours, filtered. 1 mL of an initial filtrate was discarded, and 400 μL of the subsequent filtrate was taken. The filtrate was detected by high performance liquid chromatograph (UV).

inhibition at 0.1 µM (α5-GABAA receptor)	solubility thermodynamic at 4 h [1]	SMILES
41.3%	245 µg/mL (≈ 547 µM)	COc1cc2nnc(-c3cc(C)on3)n2nc1OCc1ccc2nn(C3CN(C)C3)cc2n1 [Embodiment 233]
57.4%	32.6 µg/mL (≈ 64.3 µM)	COc1cc2nnc(-c3cc(C)on3)n2nc1OCc1ccc2c(n1)CCN(C(=O)N1CCOCC1)C2 [Embodiment 202]
43.9%	322 µg/mL (≈ 764 µM)	COc1cc2nnc(-c3cc(C)on3)n2nc1OCc1cccc(C2CCCNC2)n1 (centres unmarked) [Embodiment 103]
39%	44.9 µg/mL (≈ 99.5 µM)	COc1cc2nnc(-c3cc(C)on3)n2nc1OCc1ccc(OC2CC3(COC3)C2)nn1 [Embodiment 179]
57.3%	53.9 µg/mL (≈ 130 µM)	COCCOc1cnc(COc2nn3c(-c4cc(C)on4)nnc3cc2OC)cn1 [Embodiment 85]
52.2%	34 µg/mL (≈ 65.5 µM)	COc1cc2nnc(-c3cc(C)on3)n2nc1OCc1ccc2c(n1)CCN(C(=O)NCC(F)(F)F)C2 [Embodiment 208]
32.9%	137 µg/mL (≈ 315 µM)	COc1cc2nnc(-c3cc(C)on3)n2nc1OCc1ccc2c(n1)CCN(C(C)=O)C2 [Embodiment 115]
42.5%	408 µg/mL (≈ 907 µM)	CCN1CCC(c2cccc(COc3nn4c(-c5cc(C)on5)nnc4cc3OC)n2)CC1 [Embodiment 167]
40.7%	306 µg/mL (≈ 752 µM)	COc1cc2nnc(-c3cc(C)on3)n2nc1OCc1ccc(CN2CCC2)cn1 [Embodiment 169]
43.4%	255 µg/mL (≈ 648 µM)	COc1cc2nnc(-c3cc(C)on3)n2nc1OCc1ccc2c(n1)CCNC2 [Embodiment 78]
53.1%	38.2 µg/mL (≈ 112 µM)	COc1cc2nnc(-c3cc(C)on3)n2nc1OCc1cnnn1C [Embodiment 158]
41.8%	223 µg/mL (≈ 508 µM)	CCN1CC(F)(c2ccc(COc3nn4c(-c5cc(C)on5)nnc4cc3OC)nc2)C1 [Embodiment 127]
60.4%	32.7 µg/mL (≈ 70.8 µM)	COc1cc2nnc(-c3cc(C)on3)n2nc1OCc1ccc2ncn(C3CCOCC3)c2n1 [Embodiment 247]
35.3%	70 µg/mL (≈ 166 µM)	CCN1Cc2ccc(COc3nn4c(-c5cc(C)on5)nnc4cc3OC)nc2C1=O [Embodiment 100]
53.4%	59 µg/mL (≈ 131 µM)	COc1cc2nnc(-c3cc(C)on3)n2nc1OCc1ccc2c(cnn2C2CCOC2)n1 (centres unmarked) [Embodiment 232]
32.6%	200 µg/mL (≈ 418 µM)	COc1cc2nnc(-c3cc(C)on3)n2nc1OCc1ccc2c(n1)CCN(CC(=O)N(C)C)C2 [Embodiment 193]
32.9%	66.1 µg/mL (≈ 151 µM)	COc1cc2nnc(-c3cc(C)on3)n2nc1OCc1ccc(OCC2(C)COC2)cn1 [Embodiment 170]
38.8%	83 µg/mL (≈ 217 µM)	COCc1cccc(COc2nn3c(-c4cc(C)on4)nnc3cc2OC)n1 [Embodiment 50]
44.7%	34.8 µg/mL (≈ 72.8 µM)	COc1cc2nnc(-c3cc(C)on3)n2nc1OCc1ccc2c(n1)CCN(C(=O)C(C)(C)C)C2 [Embodiment 206]
46.2%	263 µg/mL (≈ 598 µM)	COc1cc2nnc(-c3cc(C)on3)n2nc1OCc1ccc(OCC2(C)COC2)nn1 [Embodiment 150]

inhibition at 0.1 µM (α5-GABAA receptor)	solubility thermodynamic at 4 h [1]	SMILES
31.9%	48.4 µg/mL (≈ 101 µM)	COc1cc2nnc(-c3cc(C)on3)n2nc1OCc1cccc(C2CCCN(C3COC3)C2)n1 (centres unmarked) [Embodiment 122]
35.4%	49.2 µg/mL (≈ 145 µM)	COc1cc2nnc(-c3cc(C)on3)n2nc1OCc1cnccn1 [Embodiment 19]
62%	146 µg/mL (≈ 323 µM)	COCCN1Cc2nc(COc3nn4c(-c5cc(C)on5)nnc4cc3OC)ccc2C1=O [Embodiment 66]
44.2%	48.7 µg/mL (≈ 132 µM)	COc1ccc(COc2nn3c(-c4cc(C)on4)nnc3cc2OC)nn1 [Embodiment 43]
51.3%	91.8 µg/mL (≈ 210 µM)	COCCn1ncc2nc(COc3nn4c(-c5cc(C)on5)nnc4cc3OC)ccc21 [Embodiment 241]
47.2%	195 µg/mL (≈ 432 µM)	COCCN1CCc2nc(COc3nn4c(-c5cc(C)on5)nnc4cc3OC)ccc2C1 [Embodiment 80]
	43.5 µg/mL (≈ 99.7 µM)	COCCn1cc2nc(COc3nn4c(-c5cc(C)on5)nnc4cc3OC)ccc2n1 [Embodiment 240]
34.7%		COCc1cc(-c2nnc3cc(OC)c(OCc4ccc(OC)cn4)nn23)no1 [Embodiment 48, 3-(7-Methoxy-6-((5-methoxypyridin-2-yl)methoxy)-[1,2,4]triazolo[4,3-b]pyridazine-3-yl)-5-(methoxymethyl)isoxazole]
37.4%		COc1cc2nnc(-c3cc(C)on3)n2nc1OCc1cc2c(cn1)OCCO2 [Embodiment 121]
41.7%		COCCOc1ccc(COc2nn3c(-c4cc(C)on4)nnc3cc2OC)nn1 [Embodiment 26]
41.8%		COCCCOc1cnc(COc2nn3c(-c4cc(C)on4)nnc3cc2OC)cn1 [Embodiment 86]
44.8%		COc1cnc(COc2nn3c(-c4cc(C)on4)nnc3cc2OC)cn1 [Embodiment 44]
35%		COc1cc2nnc(-c3cc(C)on3)n2nc1OCc1ccc(OC(F)F)cn1 [Embodiment 24]
54.9%		C=CC(=O)N1CCc2nc(COc3nn4c(-c5cc(C)on5)nnc4cc3OC)ccc2C1 [Embodiment 108, 1-(2-(((7-Methoxy-3-(5-methylisoxazol-3-yl)-[1,2,4]triazolo[4,3-b]pyridazin-6-yl)oxy)methyl)-7,8-dihydro-1,6-naphthyridin-6(5H)-yl)prop-2-en-1-one]
17.6%		COc1cc2nnc(-c3cc(C)on3)n2nc1OCc1cccc(C2CC2)n1 [Embodiment 57]
50.2%		COc1cc2nnc(-c3cc(C)on3)n2nc1OCc1ccc2c(n1)CCN(C)C2=O [Embodiment 142]
38%		COc1cc2nnc(-c3cc(C)on3)n2nc1OCc1ccc2c(n1)CNC2 [Embodiment 98]
49.3%		COc1cc2nnc(-c3cc(C)on3)n2nc1OCc1ccc2cnccc2n1 [Embodiment 140]
57.9%		COc1cc2nnc(-c3cc(C)on3)n2nc1OCc1ccc2nn(C)cc2n1 [Embodiment 237]
46.6%		COc1cc2nnc(-c3cc(C)on3)n2nc1OCc1ccc2ncn(C3CCOC3)c2n1 (centres unmarked) [Embodiment 246]

inhibition at 0.1 µM (α5-GABAA receptor)	solubility thermodynamic at 4 h [1]	SMILES
32%		COc1cccc(COc2nn3c(-c4cc(C)on4)nnc3cc2OC)n1 [Embodiment 38]
75.1%		CCn1nc2ccc(COc3nn4c(-c5cc(C)on5)nnc4cc3OC)nc2c1C [Embodiment 244]
40.8%		COc1cc2nnc(-c3cc(C)on3)n2nc1OCc1cccc(F)n1 [Embodiment 4]
55.4%		COc1cc2nnc(-c3cc(C)on3)n2nc1OCc1ccnc2ccnn12 [Embodiment 65]
61.5%		COc1cc2nnc(-c3cc(C)on3)n2nc1OCc1ccc2c(cnn2C2COC2)n1 [Embodiment 227]
50%		COc1cc2nnc(-c3cc(C)on3)n2nc1OCc1ccc2c(n1)CN(CCCC#N)C2 [Embodiment 257]
46.7%		COc1cc2nnc(-c3cc(C)on3)n2nc1OCc1ccc2c(cnn2Cc2cc(C)on2)n1 [Embodiment 224]
39.9%		COc1cc2nnc(-c3cc(C)on3)n2nc1OCc1ccc2c(n1)CCN(C(C)C)C2 [Embodiment 83]
34.5%		COc1cc2nnc(-c3cc(C)on3)n2nc1OCc1ccc2c(cnn2C)n1 [Embodiment 73]
30.4%		CCN1CC(Oc2ccc(COc3nn4c(-c5cc(C)on5)nnc4cc3OC)nc2)C1 [Embodiment 134]
47.7%		COc1cc2nnc(-c3cc(C)on3)n2nc1OCc1ncccc1Cl [Embodiment 17]
21.6%		COc1cc2nnc(-c3cc(C)on3)n2nc1OCc1ccc(C2CCC2)cn1 [Embodiment 56]
40.7%		COc1cc2nnc(-c3cc(C)on3)n2nc1OCc1ccc(C2(F)CNC2)cn1 [Embodiment 71]
42.2%		COc1cc2nnc(-c3cc(C)on3)n2nc1OCc1ccc2ccn(C3CCOCC3)c2n1 [Embodiment 252]
45.8%		COCCCOc1ccc(COc2nn3c(-c4cc(C)on4)nnc3cc2OC)nn1 [Embodiment 15]
47.2%		COc1cc2nnc(-c3cc(C)on3)n2nc1OCc1ccc2c(n1)CNC2=O [Embodiment 89]
47.9%		COc1cc2nnc(-c3cc(C)on3)n2nc1OCc1ccc2c(n1)CCN(CC1CC1)C2 [Embodiment 82]
44.9%		COc1cc2nnc(-c3cc(C)on3)n2nc1OCc1ccc(C2CCNCC2)cn1 [Embodiment 116]
43.5%		Cc1cc(-c2nnc3cc(OC(F)F)c(OCc4ccccn4)nn23)no1 [Embodiment 54]
39%		COc1cc2nnc(-c3cc(C)on3)n2nc1OCc1ccc2c(n1)CN(C1CCOC1)C2 (centres unmarked) [Embodiment 254]
